The source of these data is patent US11066406B2, “Small molecule inhibitors of the JAK family of kinases” (Janssen Pharmaceutica NV, priority 2018, dated 2021).

Data set [1] is described as follows: Hygroscopicity (GVS) and static storage of embodiment 11. Type of data set: physicochemical. On the procedure:
In a hygroscopicity study of embodiment 11, it was found it to be only slightly hygroscopic, with a mass change of 0.66% between 0-90% RH in the GVS analysis as shown in FIG. 18. […] Variable temperature (VT)-XRPD was performed in order to assess the stability of embodiment 11 upon heating. […] The diffractograms of embodiment 11 before and after the VT-XRPD experiment, along with the diffractogram for embodiment 6 are shown in FIG. 24. Embodiment 11 was also subjected to static storage analysis at 40° C./75% RH for up to 48 days. The samples were analyzed by XRPD and Karl Fisher (KF) after 2 days, 5 days and 48 days.

Data set [2] is described as follows: Physical stability of solid forms (accelerated aging conditions / ambient). Type of data set: physicochemical. Particulars: 2 days at 40° C./70% RH, HT-XRPD. As to the method: Long term slurry experiments were performed by suspending compound embodiment 1s in twenty neat solvents and stirring at room temperature for two weeks and at 50° C. for one week. Upon completion of the equilibration time, the residual solids were separated from the mother liquors. The solids were dried under ambient conditions and dried under vacuum (5 mBar) before being analyzed by HT-XRPD. Subsequently, the solids were exposed to accelerated aging conditions (40° C./70% relative humidity) for two days and again analyzed by HT-XRPD.
The mother liquors of the solvent equilibration experiments performed at 50° C. were filtered at 50° C. to remove any particulate matter. The suspensions at 50° C. were filtered using 0.2 μm PTFE filters, and the solutions were placed at 5° C. and aged for 72 hours. When solids had precipitated during aging these solids were separated from the liquid, dried under ambient conditions and under vacuum, and analyzed by HT-XRPD. The remaining mother liquors were allowed to slowly evaporate and the remaining solids were analyzed by HT-XRPD. The samples in which no precipitation occurred were placed under vacuum and the dried solids were analyzed by HT-XRPD. All the solids were then exposed to AAC (2 days at 40° C./70% RH) and re-analyzed by HT-XRPD.
The cooling/evaporative crystallization experiments at μL scale were performed in a 96-well plate, using 12 neat solvents and 12 solvent mixtures and applying four temperature profiles. In each well approximately 4 mg of embodiment 1s was solid dosed. Subsequently, the crystallization solvents (80 μL) and solvent mixtures were added to reach a concentration of 50 mg/mL, and the plate, with each well individually sealed, to subsequently undergo one of the four temperature profiles. Upon completion of the temperature profile the solvents were allowed to evaporate at low ambient pressure (24 hours) and the remaining solids were analyzed by HT-XRPD before and after exposure to AAC for 2 days (40° C./70% RH).
The cooling crystallization experiments with hot filtration were performed from supersaturated solutions of compound Ex. 1 prepared at 50° C. in different solvent mixtures. The hot filtrated solutions underwent a 48-hour cooling profile. The vials in which solids had precipitated after the temperature profile were centrifuged and the solids were separated from the liquid and analyzed by HT-XRPD (after drying under vacuum). If no solids had precipitated the solutions were evaporated under vacuum and the solids analyzed by HT-XRPD. All the solids were exposed to AAC (2 days at 40° C./70% RH) and re-analyzed by HT-XRPD. […] In three experiments, an amorphous residue was recovered which after AAC crystallized to a mixture of members of embodiment 1 (1s or 1a) and 3 (3e) or became deliquescent. […]

For `CC(C)(O)CNC(=O)Cc1nc2cnc3[nH]ccc3c2n1[C@H]1CC[C@H](CC#N)CC1` [embodiment 11, 2-(1-((1r,4r)-4-(Cyanomethyl)cyclohexyl)-1,6-dihydroimidazo[4,5-d]pyrrolo[2,3-b]pyridin-2-yl)-N-(2-hydroxy-2-methylpropyl)acetamide], the “physical stability by XRPD on static storage” value in data set [1] (40° C./75% RH for up to 48 days) is recorded as “remained unchanged”. Also, in data set [1] (between 0-90% RH), the “mass change in GVS analysis” value came to 0.66%. Further, the “total water uptake (Karl Fisher)” value in data set [1] (static storage 40° C./75% RH, after 48 days) amounted to 1.2%.

Turning to `CC(C)(O)CNC(=O)Cc1nc2cnc3[nH]ccc3c2n1[C@H]1CC[C@H](CC#N)CC1` [embodiment 6, 2-(1-((1r,4r)-4-(Cyanomethyl)cyclohexyl)-1,6-dihydroimidazo[4,5-d]pyrrolo[2,3-b]pyridin-2-yl)-N-(2-hydroxy-2-methylpropyl)acetamide], the “physical stability after accelerated aging conditions (AAC)” value (“physical stability … (AAC)” for short) in data set [2] is given as “stable solid form”.

Turning to `CC(C)(O)CNC(=O)Cc1nc2cnc3[nH]ccc3c2n1[C@H]1CC[C@H](CC#N)CC1` [embodiment 7, 2-(1-((1r,4r)-4-(Cyanomethyl)cyclohexyl)-1,6-dihydroimidazo[4,5-d]pyrrolo[2,3-b]pyridin-2-yl)-N-(2-hydroxy-2-methylpropyl)acetamide], the “physical stability … (AAC)” value in data set [2] is “physically stable”.

Regarding `CC(C)(O)CNC(=O)Cc1nc2cnc3[nH]ccc3c2n1[C@H]1CC[C@H](CC#N)CC1` [embodiment 2, 2-(1-((1r,4r)-4-(Cyanomethyl)cyclohexyl)-1,6-dihydroimidazo[4,5-d]pyrrolo[2,3-b]pyridin-2-yl)-N-(2-hydroxy-2-methylpropyl)acetamide], the “physical stability … (AAC)” value in data set [2] is listed as “converted to embodiment 3e”.

`CC(C)(O)CNC(=O)Cc1nc2cnc3[nH]ccc3c2n1[C@H]1CC[C@H](CC#N)CC1` [embodiment 5, 2-(1-((1r,4r)-4-(Cyanomethyl)cyclohexyl)-1,6-dihydroimidazo[4,5-d]pyrrolo[2,3-b]pyridin-2-yl)-N-(2-hydroxy-2-methylpropyl)acetamide]: in data set [2], the “physical stability … (AAC)” value is recorded as “physically unstable”.
